Measurements from US20250381184A1, “PHARMACEUTICAL COMBINATION COMPRISING AN ANTI-CD3 ANTIBODY AND A CXCR3 ANTAGONIST” (Idorsia Pharmaceuticals Ltd, priority 2022, published 2025).

B1: visilizumab: humanized IgG2 anti-CD3 antibody with two point mutations in its Fc portion for FcR non-binding properties (antibody, chains of the INN, looked up, V domains shown)
VH: QVQLVQSGAEVKKPGASVKVSCKASGYTFISYTMHWVRQAPGQGLEWMGYINPRSGYTHYNQKLKDKATLTADKSASTAYMELSSLRSEDTAVYYCARSAYYDYDGFAYWGQGTLVTVSS
VL: DIQMTQSPSSLSASVGDRVTITCSASSSVSYMNWYQQKPGKAPKRLIYDTSKLASGVPSRFSGSGSGTDFTLTISSLQPEDFATYYCQQWSSNPPTFGGGTKVEIK

Columns and labels:
[1] = test system: CXCR3-expressing CD8+ T cell migration into the BAL; experiment: LPS-induced lung inflammation model, BAL CXCR3+CD8+ T cells by flow cytometry; assay type: in vivo, Male DBA/1 mice
[2] = COMPOUND plasma concentration in LPS-induced lung inflammation model; assay type: in vivo, Male DBA/1 mice; details: food admix, increasing doses
Method: Groups of 11 to 22 mice are given food mixed with different concentrations of COMPOUND (food admix) starting 3 days prior the LPS challenge and continuing during the whole duration of the experiment. The study consists of seven treatment groups: • 1. Control food admix (no COMPOUND), n=22 • 2. Food admix containing 0.006 mg COMPOUND per g food, n=12 • 3. Food admix containing 0.02 mg COMPOUND per g food, n=12 • 4. Food admix containing 0.06/0.07 mg COMPOUND per g food, n=24 • 5. Food admix containing 0.2 mg COMPOUND per g food, n=12 • 6. Food admix containing 0.6 mg COMPOUND per g food, n=11 • 7. Food admix containing 2 mg COMPOUND per g food, n=11
The experiment is terminated at day 3, 72 hours post LPS challenge. BAL is collected and number of T cells expressing CXCR3 quantified by flow cytometry as described in Pouzol et al., Front Pharmacol 2021,12(2991), doi: 10.3389/fphar.2021.748740. Plasma samples are taken for COMPOUND concentration determination.

NOD mice = experiment: Spontaneous T1D model (NOD mice), blood glucose values; assay type: in vivo; details: for % of reduction from Isotype/vehicle group: BGV at week 40 of age; for efficacy on the BGV: therapeutic setting
From the text: The efficacy of COMPOUND and of an anti-CD3 monoclonal antibody alone or in combination, or the combination of an anti-CD3 monoclonal antibody and anti-CXCL10 monoclonal antibody can be determined in inducible and spontaneous mouse models of T1D.
The efficacy of COMPOUND and the anti-CD3 monoclonal antibody alone or in combination can be determined in non-obese diabetic (NOD) mice, a spontaneous model for studying T1D (Chen et al. Front Endocrinol 2018, 9:51).
Blood glucose concentrations may be measured using a dynaValeo glucometer from dynamiCARE.
NOD mice usually develop diabetes defined as a blood glucose value (BGV)≥300 mg/dl between 13 and 30 weeks of age.
Groups of 14 to 17 mice are treated in a therapeutic setting, starting from the first measurement of diabetes (BGV≥300 mg/dL) for each mouse (day 1). Mice are randomized based on BGV and age at treatment initiation in five treatment groups: • Group 1: Isotype injected i.v., q.d., from day 1 to day 3+ control food from day 1 until end of the study (Isotype/vehicle) • Group 2: Isotype injected i.v., q.d., from day 1 to day 3+ food loaded with COMPOUND (0.6 mg/g of food) from day 1 until end of the study (Isotype/COMPOUND) • Group 3: Anti-CD3 antibody (30 μg), i.v., q.d., from day 1 to day 3+ control food from day 1 until end of the study (anti-CD3/vehicle) • Group 4: Anti-CD3 antibody (30 μg), i.v., q.d., from day 1 to day 3+ anti-CXCL10 antibody (100 μg), i.p., from day 4 to day 19 (administrations every 2nd/3rd day, 8 administations in total)+control food from day 1 until end of the study (anti-CD3/anti-CXCL10) • Group 5: Anti-CD3 antibody (30 μg), i.v., q.d., from day 1 to day 3+ food loaded with COMPOUND (0.6 mg/g of food) from day 1 until end of the study (anti-CD3/COMPOUND)
BGVs are assessed on a weekly basis and are compared between Isotype/control food-treated mice (group 1) and mice receiving the different treatments. For each mouse the experiment is terminated when the respective mouse reaches 40 weeks of age.
In this sub-analysis, only the mice not severely hyperglycemic at treatment initiation (defined as 300 mg/dL≤BGV≤400 mg/dL) were included in the study results.

[3] = test system: patients with severe corticosteroid-refractory ulcerative colitis; details: 15 μg/kg/day reduced to 10 μg/kg/day; cited from earlier work

Row | Molecule | CXCR3+CD8+ T cell migration into the BAL ([1]; dose 0.6 mg of COMPOUND/g of food) | BAL CXCR3+CD8+ T cells ([1]; preventive setting, food admix 0.006 to 2 mg COMPOUND per g food from 3 days prior LPS, BAL 72 hours post LPS challenge) | COMPOUND plasma concentration [2] | % of reduction from Isotype/vehicle group (NOD mice; NOD mice, n = 14-17/group) [%] | % of reduction from Isotype/vehicle group (NOD mice; non-severe diabetic NOD mice, n = 7-11/group) [%] | efficacy on the BGV (NOD mice; NOD mice) | BGV at week 40 of age (mg/dL) (Mean ± SEM) (NOD mice; NOD mice, treatment from BGV≥300 mg/dL, n = 14-17/group) | BGV at week 40 of age (mg/dL) (Mean ± SEM) (NOD mice; non-severe diabetic NOD mice (300 mg/dL ≤ BGV ≤ 400 mg/dL at treatment initiation), n = 7-11/group) | efficacy on the BGV (NOD mice; non-severe diabetic NOD mice sub-analysis) | mice that showed disease progression (NOD mice; non-severe diabetic NOD mice, end of the study period) [%] | patients demonstrating a clinical response [3] [%]
1 | Cc1ncn(CC(=O)N2CCN(c3sc(C(F)(F)F)nc3-c3cnc(C(F)(F)F)nc3)C[C@H]2CCO)n1 [COMPOUND, 1-{(R)-2-(2-Hydroxy-ethyl)-4-[2-trifluoromethyl-4-(2-trifluoromethyl-pyrimidin-5-yl)-thiazol-5-yl]-piperazin-1-yl}-2-(3-methyl-[1,2,4]triazol-1-yl)-ethanone] | significantly and maximally reduces | dose-dependent decrease | dose-dependent increase | 9 | 13 | minimal | 540.9 ± 35.4 | 517.3 ± 63.9 | minimal | 86 | 
2 | B1 |  |  |  |  |  |  |  |  |  |  | 84
